Experimental findings from ChEMBL document CHEMBL4014340, “Identification of a Potent, Selective, and Efficacious Phosphatidylinositol 3-Kinase δ (PI3Kδ) Inhibitor for the Treatment of Immunological Disorders” (J Med Chem, 2017) are described below.

Where only a bound is given, the exact number is not on record here.

A short description of data set [1]: Metabolic stability in human liver microsomes assessed as parent compound remaining at 0.5 uM preincubated for 6 mins followed by NADPH addition measured after 10 mins by LC-MS/MS analysis. In kind it is ADME, microsome. To be noted: read-out: Stability.
A short description of data set [2]: Metabolic stability in rat liver microsomes assessed as parent compound remaining at 0.5 uM preincubated for 6 mins followed by NADPH addition measured after 10 mins by LC-MS/MS analysis. In kind it is ADME, microsome. To be noted: read-out: Stability.
A short description of data set [3]: Metabolic stability in mouse liver microsomes assessed as parent compound remaining at 0.5 uM preincubated for 6 mins followed by NADPH addition measured after 10 mins by LC-MS/MS analysis. In kind it is ADME, microsome. To be noted: read-out: Stability. In general terms: Liver microsomes are a subcellular fraction often used to study metabolism.
The nature of data set [4]: Half life in human liver microsomes aat 0.5 uM preincubated for 6 mins followed by NADPH addition measured after 10 mins by LC-MS/MS analysis. In kind it is ADME, microsome.
Data set [5] in a line: Half life in rat liver microsomes aat 0.5 uM preincubated for 6 mins followed by NADPH addition measured after 10 mins by LC-MS/MS analysis. In kind it is ADME, microsome.
The nature of data set [6]: Half life in mouse liver microsomes aat 0.5 uM preincubated for 6 mins followed by NADPH addition measured after 10 mins by LC-MS/MS analysis. In kind it is ADME, microsome.
Data set [7] in a line: Cmax in Balb/c mouse at 10 mg/kg, po. In kind it is ADME, organism-based. Details: dose 10 mg/kg, route oral. As to conditions: in vivo.
A short description of data set [8]: AUC (0 to 24 hrs) in Balb/c mouse at 10 mg/kg, po. As to conditions: in vivo. Also on record: time < 24 hr, dose 10 mg/kg, route oral. In kind it is ADME, organism-based.
Data set [9] deals with Oryctolagus cuniculus. The data set can be described thus: Effect on QTc time interval in New Zealand White rabbit administered as 10 mins iv infusion measured for 2 mins by ECG analysis. In kind it is ADME, organism-based. As to conditions: in vivo.
Data set [10] can be described thus: Cmax in mouse at 6 mg/kg, po. Details: dose 6 mg/kg, route oral. In kind it is ADME, organism-based. To be noted: in vivo.
A short description of data set [11]: Cmax in rat at 5 mg/kg, po. In kind it is ADME, organism-based. Also on record: dose 5 mg/kg, route oral. As to conditions: in vivo.
The nature of data set [12]: Cmax in dog at 2 mg/kg, po. In kind it is ADME, organism-based, Canis lupus familiaris. Also on record: dose 2 mg/kg, route oral. As to conditions: in vivo.
Data set [13] in a line: AUC in mouse at 6 mg/kg, po. In kind it is ADME, organism-based. To be noted: in vivo.
A short description of data set [14]: Clearance in monkey at 1 mg/kg, iv. In kind it is ADME, organism-based, Macaca mulatta. To be noted: rhesus monkey, in vivo.
A short description of data set [15]: AUC in rat at 5 mg/kg, po. In kind it is ADME, organism-based. To be noted: in vivo.
Data set [16] is described as follows: Clearance in mouse at 3 mg/kg, iv. In kind it is ADME, organism-based. To be noted: in vivo.
The nature of data set [17]: Clearance in rat at 2 mg/kg, iv. In kind it is ADME, organism-based. As to conditions: in vivo.
A short description of data set [18]: Volume of distribution at steady state in mouse at 3 mg/kg, iv. In kind it is ADME, organism-based. To be noted: in vivo, read-out: Vdss.
Data set [19] in a line: Volume of distribution at steady state in rat at 2 mg/kg, iv. To be noted: in vivo, read-out: Vdss. In kind it is ADME, organism-based.
Data set [20] is described as follows: Volume of distribution at steady state in dog at 1 mg/kg, iv. In kind it is ADME, organism-based, Canis lupus familiaris. To be noted: in vivo, read-out: Vdss.
Data set [21] in a line: Volume of distribution at steady state in monkey at 1 mg/kg, iv. In kind it is ADME, organism-based, Macaca mulatta. As to conditions: rhesus monkey, in vivo, read-out: Vdss.
Data set [22] can be described thus: Half life in mouse at 3 mg/kg, iv. In kind it is ADME, organism-based. As to conditions: in vivo.
A short description of data set [23]: Half life in rat at 2 mg/kg, iv. In kind it is ADME, organism-based. As to conditions: in vivo.
Data set [24] is described as follows: Half life in dog at 1 mg/kg, iv. In kind it is ADME, organism-based, Canis lupus familiaris. To be noted: in vivo.
Data set [25] can be described thus: Half life in monkey at 1 mg/kg, iv. In kind it is ADME, organism-based, Macaca mulatta. As to conditions: rhesus monkey, in vivo.
Data set [26] in a line: Oral bioavailability in mouse at 6 mg/kg. To be noted: in vivo. In kind it is ADME, organism-based.
Data set [27] in a line: Oral bioavailability in rat at 5 mg/kg. In kind it is ADME, organism-based. To be noted: in vivo.
In a further data set the test system is Canis familiaris. Briefly: Oral bioavailability in dog at 2 mg/kg. In kind it is ADME, organism-based, Canis lupus familiaris. As to conditions: in vivo.
For data set [28], the system named is Plasma. The data set can be described thus: Drug uptake in New Zealand White rabbit plasma at 3 mg/kg, iv administered as 10 mins infusion measured up to 30 mins post dose. To be noted: in vivo. In kind it is ADME, organism-based, Oryctolagus cuniculus.
For data set [29], the system named is Plasma. Briefly: Drug uptake in New Zealand White rabbit plasma at 10 mg/kg, iv administered as 10 mins infusion measured up to 30 mins post dose. In kind it is ADME, organism-based, Oryctolagus cuniculus. To be noted: in vivo.
Data set [30] concerns Plasma. Briefly: Drug uptake in New Zealand White rabbit plasma at 20 mg/kg, iv administered as 10 mins infusion measured up to 30 mins post dose. As to conditions: in vivo. In kind it is ADME, organism-based, Oryctolagus cuniculus.
Data set [31] relates to Plasma. The data set can be described thus: Free plasma concentration in New Zealand White rabbit at 3 mg/kg, iv administered as 10 mins infusion measured up to 30 mins post dose. In kind it is ADME, organism-based, Oryctolagus cuniculus. To be noted: in vivo.
The test system of data set [32] is Plasma. The data set can be described thus: Free plasma concentration in New Zealand White rabbit at 10 mg/kg, iv administered as 10 mins infusion measured up to 30 mins post dose. In kind it is ADME, organism-based, Oryctolagus cuniculus. To be noted: in vivo.
In data set [33] the test system is Plasma. The data set can be described thus: Free plasma concentration in New Zealand White rabbit at 20 mg/kg, iv administered as 10 mins infusion measured up to 30 mins post dose. In kind it is ADME, organism-based, Oryctolagus cuniculus. To be noted: in vivo.
The test system of data set [34] is Oryctolagus cuniculus. Briefly: Effect on QTc time interval in New Zealand White rabbit at 3 mg/kg, iv administered as 10 mins infusion measured for 2 mins by ECG analysis. In kind it is ADME, organism-based. As to conditions: in vivo.
In data set [35] the test system is Oryctolagus cuniculus. The data set can be described thus: Effect on QTc time interval in New Zealand White rabbit at 10 mg/kg, iv administered as 10 mins infusion measured for 2 mins by ECG analysis. In kind it is ADME, organism-based. To be noted: in vivo.
Data set [36] concerns Oryctolagus cuniculus. Briefly: Effect on QTc time interval in New Zealand White rabbit at 20 mg/kg, iv administered as 10 mins infusion measured for 2 mins by ECG analysis. In kind it is ADME, organism-based. To be noted: in vivo.

Regarding `CC(=O)N1CCN(c2cccc(-c3cc(-c4ccnn4CC(F)(F)F)c4c(N)ncnn34)c2)C(=O)C1(C)C`, the remaining at 10 min, 0.5 µM is 80% in data set [1], 70% in [2] and 62% in data set [3]. For the same compound, the half-life (as a rule, the time needed for the level to fall by half in the phase considered) at 0.5 µM turned out to be 0.95 h in [4], 0.517 h in data set [5] and 0.433 h in data set [6]. Further, the Cmax (as a rule, the highest concentration seen after dosing) in [7] was found to be 1.8 µM. For the same compound, the AUC(0-t) (usually exposure summed from dosing to a finite time, without extrapolation to infinity) at 24 h in data set [8] is 4.1 µM·h. This compound showed a Time with Oryctolagus cuniculus [9] of more than 10 ms.

Consider `CC(=O)N1CCN(c2cccc(-c3cc(C(F)(F)F)c4c(N)ncnn34)c2)C(=O)C1(C)C`, for which the values for the remaining at 10 min, 0.5 µM in data set [1], in data set [2] and in data set [3] were 83%, 52% and 30%, respectively. In addition, the half-life at 0.5 µM was 0.683 h in [4], 0.233 h in data set [5] and 0.15 h in [6].

With `CC(=O)N1CCN(c2cc(-c3cc(C(F)(F)F)c4c(N)ncnn34)ccc2C#N)C(=O)C1(C)C`, the highest concentration (Cmax) in [10] amounted to 5.9 µM; in data set [11], 14 µM; in data set [7], 8.2 µM; in data set [12], 6.3 µM. For the same compound, the remaining at 10 min, 0.5 µM in [1] came out at 94%; in data set [2], 91%; in [3], 81%. The half-life at 0.5 µM in data set [4] was more than 2 h; in [5], 1.12 h; in [6] it was 1.2 h. The same compound yielded an exposure AUC(0-t) at 24 h in data set [8] of 17 µM·h. The values for the area under the curve (AUC) in [13] and in data set [15] were 12 µM·h and 54 µM·h, respectively. In addition, the values for the clearance in [14], in [16] and in [17] were 0.276 L/h/kg, 1.02 L/h/kg and 0.138 L/h/kg, respectively. The Vd stood at 2.7 L/kg in data set [18], 0.5 L/kg in [19], 0.61 L/kg in data set [20] and 3.6 L/kg in data set [21]. In addition, the half-life was 4.9 h in data set [22], 3.5 h in data set [23], 29 h in [24] and 10 h in [25]. The figures for the bioavailability in [26] and in data set [27] were 94% and 71%, respectively. The compound also displayed a F with Canis familiaris of 75%. In addition, the concentration in the data set on Plasma [28] amounted to 10 µM; in the data set on Plasma [29], 27 µM; in the data set on Plasma [30] it was 54 µM. Moreover, the “Cp(f)” value in the data set on Plasma [31] was 0.9 µM; in the data set with Plasma [32], 2.4 µM; with Plasma [33] it was 4.8 µM. Moreover, the Time with Oryctolagus cuniculus [34] is given as 2.2 ms; in the data set with Oryctolagus cuniculus [35], 13 ms; in the data set with Oryctolagus cuniculus [36], 25 ms.

On to `CC(=O)N1CCN(c2cc(-c3cc(Cl)c4c(N)ncnn34)ccc2C)C(=O)C1(C)C`, for which the remaining at 10 min, 0.5 µM in [1] is 82%; in data set [2], 60%; in data set [3] it was 66%.

In the case of `CC(=O)N1C[C@H](C)N(c2cc(-c3cc(Cl)c4c(N)ncnn34)ccc2C#N)C(=O)C1(C)C`, the remaining at 10 min, 0.5 µM in data set [1] was determined as 99%; in data set [2] it was 94%; in data set [3], 85%.

As to `CC(=O)N1CCN(c2cccc(-c3cc(-c4ccnn4C4CCOCC4)c4c(N)ncnn34)c2)C(=O)C1(C)C`, the remaining at 10 min, 0.5 µM in data set [1] turned out to be 77%; in data set [2], 81%; in data set [3] it was 53%.

As for `COc1ccc(-c2cc(Cl)c3c(N)ncnn23)cc1N1CCN(C(C)=O)C(C)(C)C1=O`, the figures for the remaining at 10 min, 0.5 µM in data set [1], in data set [2] and in data set [3] were 94%, 91% and 94%, respectively.

Regarding `CC(=O)N1C[C@H](C)N(c2cc(-c3cc(C(F)(F)F)c4c(N)ncnn34)ccc2C#N)C(=O)C1(C)C`, the remaining at 10 min, 0.5 µM in data set [1] was 89%; in data set [2] it was 91%; in [3], 100%.

For the compound `CC(=O)N1CCN(c2cc(-c3cc(C(F)(F)F)c4c(N)ncnn34)ccc2S(C)(=O)=O)C(=O)C1(C)C`, the remaining at 10 min, 0.5 µM is 96% in data set [1], 96% in data set [2] and 97% in [3].

Take `CC(=O)N1CCN(c2cc(-c3cc(Cl)c4c(N)ncnn34)ccc2C#N)C(=O)C1(C)C`: the remaining at 10 min, 0.5 µM in data set [1] is 90%; in [2], 89%; in data set [3], 89%.

Regarding `CC(=O)N1CCN(c2cc(-c3cc(Cl)c4c(N)ncnn34)ccc2C(F)(F)F)C(=O)C1(C)C`, the remaining at 10 min, 0.5 µM amounted to 95% in data set [1], 87% in data set [2] and 88% in data set [3].
